Measurements: US12364709B2, “Bioavailable poly amines” (AMINEX THERAPEUTICS, INC., priority 2016, dated 2025)

Assay: 28-day repeat-dose toxicity study, toxicokinetics of AMXT 1501 dicaprate
Assay type: in vivo, beagle dogs
Protocol: AMXT 1501 PK parameters were calculated for all AMXT 1501 dicaprate-dosed animals for the first dose (Day 1) and last dose (Day 28).

[1] = 8 mg/kg/day PO, DFMO 0, Day 1, M+F combined
[2] = 8 mg/kg/day PO, DFMO 0, Day 28, M+F combined
[3] = 8 mg/kg/day PO, DFMO 50 mg/kg/day, Day 28, M+F combined
[4] = 8 mg/kg/day PO, DFMO 200 mg/kg/day, Day 1, M+F combined
[5] = 16 mg/kg/day PO, DFMO 0, Day 1, M+F combined
[6] = 16 mg/kg/day PO, DFMO 0, Day 28, M+F combined
[7] = 16 mg/kg/day PO, DFMO 50 mg/kg/day, Day 28, M+F combined
[8] = 16 mg/kg/day PO, DFMO 200 mg/kg/day, Day 1, M+F combined
[9] = 32 mg/kg/day PO, DFMO 0, Day 1, M+F combined
[10] = 32 mg/kg/day PO, DFMO 0, Day 28, M+F combined

What does the source list for `CCCCCCCCCCCCCCCC(=O)NCCCC[C@@H](N)C(=O)NCCCNCCCCNCCCN` [AMXT 1501 dicaprate]?
AUC0-24 hr Max. [1]: 2810 ng·h/mL; AUC0-24 hr Min. [1]: 374 ng·h/mL; Cmax Max. [1]: 158 ng/mL; Cmax Min. [1]: 30.8 ng/mL; Tmax Max. [1]: 12.0 h; Tmax Min. [1]: 2.00 h; AUC0-24 hr Max. [2]: 5230 ng·h/mL; AUC0-24 hr Min. [2]: 249 ng·h/mL; AUC0-t Max. [2]: 9470 ng·h/mL; AUC0-t Min. [2]: 308 ng·h/mL; AUC0-∞ Min. [2]: 328 ng·h/mL; Cmax Max. [2]: 360 ng/mL; Cmax Min. [2]: 17.7 ng/mL; Tmax Min. [2]: 0.00 h; t1/2 Max. [2]: 28.8 h; t1/2 Min. [2]: 12.6 h; AUC0-24 hr Max. [3]: 4230 ng·h/mL; AUC0-24 hr Min. [3]: 366 ng·h/mL; AUC0-t Max. [3]: 5010 ng·h/mL; AUC0-t Min. [3]: 1040 ng·h/mL; AUC0-∞ Max. [3]: 5120 ng·h/mL; AUC0-∞ Min. [3]: 1060 ng·h/mL; Cmax Max. [3]: 275 ng/mL; Cmax Min. [3]: 48.0 ng/mL; Tmax Max. [3]: 12.0 h; Tmax Min. [3]: 0.00 h; t1/2 Max. [3]: 24.9 h; t1/2 Min. [3]: 8.85 h; AUC0-24 hr Max. [4]: 2670 ng·h/mL; AUC0-24 hr Min. [4]: 323 ng·h/mL; Cmax Max. [4]: 182 ng/mL; Cmax Min. [4]: 35.2 ng/mL; Tmax Max. [4]: 12.0 h; AUC0-24 hr Max. [5]: 6350 ng·h/mL; AUC0-24 hr Min. [5]: 104 ng·h/mL; Cmax Max. [5]: 408 ng/mL; Cmax Min. [5]: 10.4 ng/mL; Tmax Max. [5]: 12.0 h; Tmax Min. [5]: 2.00 h; AUC0-24 hr Max. [6]: 7800 ng·h/mL; AUC0-24 hr Min. [6]: 1320 ng·h/mL; AUC0-t Max. [6]: 10800 ng·h/mL; AUC0-t Min. [6]: 4870 ng·h/mL; AUC0-∞ Max. [6]: 10800 ng·h/mL; AUC0-∞ Min. [6]: 4910 ng·h/mL; Cmax Max. [6]: 408 ng/mL; Cmax Min. [6]: 109 ng/mL; Tmax Max. [6]: 12.0 h; Tmax Min. [6]: 0.00 h; t1/2 Max. [6]: 35.8 h; t1/2 Min. [6]: 10.1 h; AUC0-24 hr Max. [7]: 10800 ng·h/mL; AUC0-24 hr Min. [7]: 1480 ng·h/mL; AUC0-t Max. [7]: 22300 ng·h/mL; AUC0-t Min. [7]: 3410 ng·h/mL; AUC0-∞ Max. [7]: 22600 ng·h/mL; AUC0-∞ Min. [7]: 3610 ng·h/mL; Cmax Max. [7]: 578 ng/mL; Cmax Min. [7]: 98.4 ng/mL; Tmax Max. [7]: 12.0 h; Tmax Min. [7]: 0.00 h; t1/2 Max. [7]: 69.4 h; t1/2 Min. [7]: 26.4 h; AUC0-24 hr Max. [8]: 4280 ng·h/mL; AUC0-24 hr Min. [8]: 94.4 ng·h/mL; Cmax Max. [8]: 263 ng/mL; Cmax Min. [8]: 7.27 ng/mL; Tmax Max. [8]: 12.0 h; AUC0-24 hr Max. [9]: 6590 ng·h/mL; AUC0-24 hr Min. [9]: 999 ng·h/mL; Cmax Max. [9]: 353 ng/mL; Cmax Min. [9]: 58.2 ng/mL; Tmax Max. [9]: 12.0 h; Tmax Min. [9]: 2.00 h; AUC0-24 hr Max. [10]: 16600 ng·h/mL; AUC0-24 hr Min. [10]: 2830 ng·h/mL; AUC0-t Max. [10]: 41500 ng·h/mL; AUC0-t Min. [10]: 8730 ng·h/mL; AUC0-∞ Max. [10]: 41700 ng·h/mL; AUC0-∞ Min. [10]: 8810 ng·h/mL; Cmax Max. [10]: 1110 ng/mL; Cmax Min. [10]: 190 ng/mL; Tmax Max. [10]: 12.0 h; Tmax Min. [10]: 0.00 h; t1/2 Max. [10]: 61.1 h; t1/2 Min. [10]: 27.3 h; dose-proportionality of plasma levels of AMXT 1501 (8, 16 and 32 mg/kg/day, Day 1 and Day 28, enterically-coated tablets): approximately dose-proportional increases; half-life at 28 days (beagle, dog, plasma, oral, Day 28, all dose groups, read-out: Day 28 individual animal AMXT 1501 t1/2 values): 8.85 to 69.4 h; AUC(0-t) (both sexes, beagle, dog, plasma, po, 8 mg/kg/day, 8 mg/kg/day PO, DFMO 0, Day 1, M+F combined, read-out: AUC0-24 hr Mean): 1330 ng·h/mL
